Data as given in ChEMBL document CHEMBL1127955, “Enantioselective synthesis of the optical isomers of broad-spectrum orally active antifungal azoles, Sch 42538 and Sch 45012” (1994).
Several values for one entry are separate records, joined by “and”; a condition that tells them apart may be missing. Equal entries are not always repeated.

Legend:
Format in all cases: functional
Mus musculus [1] = assay: Compound was tested for the colony forming units of Aspergillus flavus in mice at a dose of 66 mg/kg expressed as geometric mean
Mus musculus [2] = assay: Compound was tested for the oral activity in CF-1 mice infected with C. Albicans at a dose of 10 mg/kg of 4 days post infection
Mus musculus [3] = assay: Compound was tested for the oral activity in CF-1 mice infected with Aspergillus flavus at a dose of 100 mg/kg of 4 days post infection; settings: for Survival: 100 mg/kg; for survival at 100 mg/kg: Mus musculus, po, 96 h
Mus musculus [4] = assay: Compound was tested for the colony forming units of Aspergillus flavus in mice at a dose of 100 mg/kg expressed as geometric mean
Mus musculus [5] = assay: Compound was tested for the colony forming units of C. Albicans in mice at a dose of 50 mg/kg expressed as geometric mean
Mus musculus [6] = species on record: Mus musculus; assay: Compound was tested for the oral activity in CF-1 mice infected with C. Albicans in eagles essential medium at pH 7.0 duration of 48 h; parameters: unit not given here
Mus musculus [7] = assay: Compound was tested for the oral activity in CF-1 mice infected with Aspergillus flavus at a dose of 66 mg/kg of 4 days post infection; settings: for Survival: 66 mg/kg; for survival at 66 mg/kg: Mus musculus, po, 96 h
Mus musculus [8] = assay: Compound was tested for the oral activity in CF-1 mice infected with C. Albicans at a dose of 50 mg/kg of 4 days post infection; settings: for Survival: 50 mg/kg; for survival at 50 mg/kg: Mus musculus, po, 96 h
Mus musculus [9] = species on record: Mus musculus; assay: Compound was tested for the oral activity in CF-1 mice infected with Aspergillus flavus by sabouraud dextrose broth of pH 5.7 duration of 72 h; parameters: unit not given here
Mus musculus [10] = assay: Compound was tested for the colony forming units of C. Albicans in mice at a dose of 25 mg/kg expressed as geometric mean
Mus musculus [11] = assay: Compound was tested for the oral activity in CF-1 mice infected with C. Albicans at a dose of 25 mg/kg of 4 days post infection; settings: for Survival: 25 mg/kg; for survival at 25 mg/kg: Mus musculus, po, 96 h
Mus musculus [12] = assay: Compound was tested for the colony forming units of C. Albicans in mice at a dose of 10 mg/kg expressed as geometric mean

Row | SMILES | CFU (Mus musculus [1]) | Survival (Mus musculus [2]; 10 mg/kg) | Survival (Mus musculus [3]) | CFU (Mus musculus [4]) | CFU (Mus musculus [5]; 50 mg/kg) | MIC (Mus musculus [6]) | Survival (Mus musculus [7]) | Survival (Mus musculus [8]) | MIC (Mus musculus [9]) | CFU (Mus musculus [10]; 25 mg/kg) | Survival (Mus musculus [11]) | CFU (Mus musculus [12]; 10 mg/kg) | survival at 100 mg/kg (Mus musculus [3]) | CFU (Mus musculus [5]) | survival at 66 mg/kg (Mus musculus [7]) | survival at 50 mg/kg (Mus musculus [8]) | CFU (Mus musculus [10]) | survival at 25 mg/kg (Mus musculus [11]) | survival at 10 mg/kg (Mus musculus [2]; Mus musculus, po, 96 h) | CFU (Mus musculus [12])
1 | CCC(C)n1ncn(-c2ccc(N3CCN(c4ccc(OC[C@@H]5COC(Cn6cncn6)(c6ccc(F)cc6F)C5)cc4)CC3)cc2)c1=O (single isomer, unassigned) | 2.25 | 40% and 90% | 100% | 1.95 | 4.99 | 0.0039 | 50% | 100% | 0.0625 | 5.14 | 100% | 7.42 and 5.92 |  |  |  |  |  |  |  | 
2 | CC[C@@H](C)n1ncn(-c2ccc(N3CCN(c4ccc(OC[C@@H]5COC(Cn6cncn6)(c6ccc(F)cc6F)C5)cc4)CC3)cc2)c1=O (single isomer, unassigned) |  |  | 10% |  | 9 | 0.0313 | 0% | 0% | >8 | 9 | 0% |  |  |  |  |  |  |  |  | 
3 | CCC(C)n1ncn(-c2ccc(N3CCN(c4ccc(OC[C@H]5CO[C@](Cn6cncn6)(c6ccc(F)cc6F)O5)cc4)CC3)cc2)c1=O (single isomer, unassigned) [SAPERCONAZOLE] |  |  |  |  | 8.2 and 9 | 0.0039 |  | 20% and 0% | 0.0313 |  |  |  | 0% |  |  |  |  |  |  | 
4 | CC[C@H](C)n1ncn(-c2ccc(N3CCN(c4ccc(OC[C@@H]5COC(Cn6cncn6)(c6ccc(F)cc6F)C5)cc4)CC3)cc2)c1=O (single isomer, unassigned) [SCH-49999] |  |  |  |  |  | 0.0625 |  |  | >8 |  |  |  | 20% | 7.84 | 0% | 20% | 9 | 0% |  | 
5 | CCC(C)n1ncn(-c2ccc(N3CCN(c4ccc(OC[C@@H]5CO[C@@](Cn6cncn6)(c6ccc(Cl)cc6Cl)O5)cc4)CC3)cc2)c1=O (stereo partly drawn) [ITRACONAZOLE] |  |  |  |  |  | 0.0078 |  |  | 0.125 |  |  |  | 20% | 6.68 | 0% | 60% | 9 | 0% | 10% | 8.87
